Experiment [1] deals with pyruvate dehydrogenase (PDH). Nature of the experiment: Proportion of active pyruvate dehydrogenase (PDHa/PDHt) in hearts of fat-fed rats after dosing in vivo. The note with it: heart of fat-fed rats. On the set-up: species or system rat. The procedure:
(2) increase the proportion of the active form of the enzyme pyruvate dehydrogenase (PDH) in organs of animals (e.g. rats) in vivo; and
The ability of compounds of formula (I) to increase the proportion of the active form of the pyruvate dehydrogenase enzyme may be measured by the following test.
(2) Rats fed on a high fat diet as in test (1) (a), are treated either with placebo or with the compound of formula (I), by subcutaneous or intravenous injection or by oral administration, and at various times after treatment the rat hearts are removed and homogenized, under conditions which minimize changes in the proportion of the pyruvate dehydrogenase enzyme which is present in the active form, as described by Whitehouse and Randle (Biochem. J. 1973, 134, 651). The total amount of the enzyme present (PDHt) and the amount which is present in the active form (PDHa) are assessed by a method similar to that described by Taylor et al (J. Biol. Chem. 1973, 248, 73). The fat-feeding process is found to depress the ratio PDHa/PDHt from a normal value of about 0.7 to a value in the range from 0.05 to 0.2.

Experiment [2] has as its system pyruvate oxidation by diaphragm tissue from fat-fed rats. Nature of the experiment: Pyruvate oxidation (14C-pyruvate into CO2) by diaphragm tissue from fat-fed rats in vitro. It is filed as cell-based. The conditions noted are these: Rattus norvegicus, read-out: % Stimulation of pyruvate oxidation; for activation at 2000 µM: 2.0 mM compound in medium. The procedure: (1) increase the oxidation of glucose and/or pyruvate by isolated rat muscle preparation in vitro;
(1) (a) Diaphragm tissue is obtained from rats fed on a high fat diet similar to `Diet B` described by Zaragoza and Felber (Horm. Metab. Res. 1970, 2, 323). Pyruvate oxidation by such tissue is assessed by measurement of the rate of incorporation of carbon-14 carbon-14-labelled pyruvate into carbon dioxide in vitro, as described by Bringolf (Eur. J. Biochem. 1972, 26, 360). The rate of pyruvate oxidation is depressed by 50-75% compared with that by diaphragm tissue from rats fed on a normal diet. When the compounds of the formula (I) are added to the medium, they are found to stimulate pyruvate oxidation by diaphragm tissue from fat-fed rats in a dose dependent manner.
The degree of stimulation by the compounds of the formula (I) at a concentration of 2.0 mM (unless otherwise stated) is shown in the following Table.

The subject of experiment [3] is fasted, closed-chest, anesthetized beagle dogs. The experiment can be described thus: Myocardial blood flow and metabolism in electrically paced, anesthetized beagle dogs, with or without isoprenaline. The experiment is classed as in vivo. The note with it: 0.02 to 0.1 millimole/kg. intravenously; in the presence and absence of isoprenaline. From the text:
(3) reduce oxygen demand and affect the relative utilization of carbohydrate and lipid metabolites by the electrically-paced heart of an anesthetized dog in the presence or absence of an isoprenaline stimulus.
The ability of compounds of formula (I) to reduce oxygen demand and affect the relative utilization of carbohydrate and lipid metabolites in the heart may be assessed by measuring the effect of the compounds on myocardial blood flow and metabolism in fasted, closed-chest, anesthetized beagle dogs, with cardiac catheterization to enable simultaneous sampling of coronary sinus and arterial blood to be carried out. Coronary sinus blood flow is measured by the hydrogen gas clearance technique described by Aukland et al (Circulation Res. 1964, 14, 164). The heart is paced electrically at 155 beats/min. and recordings of hemodynamic parameters (blood pressure, left ventricular pressure and the first derivative of the latter) are made continuously. Control measurements of coronary blood flow are made and samples of blood taken at 40 min. intervals, both in an untreated animal and in the same animal dosed with an infusion of isoprenaline ([…].), which both stimulates cardiac contraction and increases plasma free fatty acid levels. The compound of formula (I) is then administered intravenously and measurements are made and samples taken again, 40 minutes and 90 minutes later. The blood samples from the artery and coronary sinus are analyzed for oxyhemoglobin, pyruvate and free fatty acid (FFA) content, differences between those of the arterial and coronary sinus blood, when multiplied by coronary blood flow, being a measure of oxygen consumption, pyruvate uptake and FFA uptake by the myocardium respectively.

Experiment [4] concerns rats in which diabetes has been induced by treatment with streptozotocin. The experiment can be described thus: Blood glucose levels in streptozotocin-diabetic rats. It is filed as in vivo. The conditions noted are these: averages for 8 animals. The procedure:
(4) decrease blood glucose levels in animals made diabetic by chemical lesion of the pancreas.
The ability of compounds of formula (I) to decrease blood glucose levels may be assessed by measuring their effect on blood glucose levels in rats in which diabetes has been induced by treatment with streptozotocin (85 mg./kg.). Four days after such treatment, a number of rats are given 1 millimole/kg. of the compound by intraperitoneal injection and a similar number are given placebo. The doses are repeated after a further 24 hours and 48 hours. Blood samples are taken from a tail vein immediately before each dosage (which is 2 hours after removal of the animals from food) and 1, 2 and 3 hours after the third dose.

[5] abbreviates: dose 1.2 mM/kg subcutaneous, 1.5 hours, placebo ratio 0.11-0.24 in the same line.

As for `Cc1ccc(C(=O)C(=O)O)cc1` [R=CH3, R1=H, R2=OH, p-methylphenylglyoxylic acid], in experiment [1] (setting [5]), the “PDHa/PDHt ratio at 1.5 hours (Compound)” value is 0.20. Moreover, the activation at 2000 µM in experiment [2] came to 71%.

As to `O=C(O)C(=O)c1ccc(Cl)cc1` [R=Cl, R1=H, R2=OH, p-chlorophenylglyoxylic acid], the activation at 2000 µM in experiment [2] was found to be 71%.

As for `O=C(O)C(=O)c1ccccc1` [R=H, R1=H, R2=OH, phenylglyoxylic acid], the “PDHa/PDHt ratio at 1.5 hours (Compound)” value in experiment [1] (setting [5]) is 0.38. Moreover, the activation at 1000 µM in experiment [2] (at 1mM) amounted to 25%.

On to `CCOC(=O)C(=O)c1ccc(OCC)cc1` [R=OC2H5, R1=H, R2=OC2H5, ethyl p-ethoxyphenylglyoxylate], for which the “PDHa/PDHt ratio at 1.5 hours (Compound)” value in experiment [1] (setting [5]) was 0.35.

Turning to `CCOc1ccc(C(=O)C(=O)O)cc1` [R=OC2H5, R1=H, R2=OH, p-ethoxyphenylglyoxylic acid], in experiment [1] (setting [5]), the “PDHa/PDHt ratio at 1.5 hours (Compound)” value amounted to 0.56. In addition, the activation at 2000 µM in experiment [2] amounted to 91%.

`COc1ccc(C(=O)C(=O)O)cc1Cl` [R=OCH3, R1=3-Cl, R2=OH, m-chloro-p-methoxyphenylglyoxylic acid]: the “PDHa/PDHt ratio at 1.5 hours (Compound)” value in experiment [1] (setting [5]) turned out to be 0.35. In addition, in experiment [2], the activation at 2000 µM came to 52%.

As to `COc1ccc(C(=O)C(=O)O)cc1` [R=OCH3, R1=H, R2=OH, p-methoxyphenylglyoxylic acid], the “PDHa/PDHt ratio at 1.5 hours (Compound)” value in experiment [1] (setting [5]) is 0.49. Also, in experiment [2], the activation at 2000 µM amounted to 127%.

Turning to `Cc1cc(C(=O)C(=O)O)ccc1O` [R=OH, R1=3-CH3, R2=OH, p-hydroxy-m-methylphenylglyoxylic acid], in experiment [1] (setting [5]), the “PDHa/PDHt ratio at 1.5 hours (Compound)” value stood at 0.31. Besides, in experiment [2], the activation at 2000 µM was 21%.

As for `O=C(O)C(=O)c1ccc(O)c(I)c1` [R=OH, R1=3-I, R2=OH, p-hydroxy-m-iodophenylglyoxylic acid], the activation at 2000 µM in experiment [2] was determined as 55%.

`CCOC(=O)C(=O)c1ccc(O)cc1` [R=OH, R1=H, R2=OC2H5, ethyl p-hydroxyphenylglyoxylate]: in experiment [2], the activation at 2000 µM came to 83%.

Take `CC(C)Sc1ccc(C(=O)C(=O)O)cc1` [R=S . isopropyl, R1=H, R2=OH, p-(isopropylthio)phenylglyoxylic acid]: the activation at 2000 µM in experiment [2] stood at 200%.

Regarding `CCCCSc1ccc(C(=O)C(=O)O)cc1` [R=S . n-butyl, R1=H, R2=OH, p-(n-butylthio)phenylglyoxylic acid], the activation at 2000 µM in experiment [2] amounted to 113%.

As for `CCSc1ccc(C(=O)C(=O)O)cc1` [R=SC2H5, R1=H, R2=OH, p-(ethylthio)phenylglyoxylic acid], in experiment [1] (setting [5]), the “PDHa/PDHt ratio at 1.5 hours (Compound)” value was found to be 0.73. Further, the activation at 2000 µM in experiment [2] came out at 158%.

Consider `CC(C)(C)CSc1ccc(C(=O)C(=O)O)cc1` [R=SCH2 . t-butyl, R1=H, R2=OH], for which the activation at 2000 µM in experiment [2] was 67%.

`CSc1ccc(C(=O)C(=O)O)cc1` [R=SCH3, R1=H, R2=OH, p-(methylthio)phenylglyoxylic acid]: the “PDHa/PDHt ratio at 1.5 hours (Compound)” value was determined as 0.47 in experiment [1] (first of two doses shown only in drawing 5, subcutaneous, placebo 0.20) and 0.24 in experiment [1] (second of two doses shown only in drawing 5, subcutaneous, placebo 0.12). Further, the activation at 2000 µM in experiment [2] stood at 123%.

For the compound `O=C(O)C(=O)c1ccc(O)cc1` [p-hydroxyphenylglyoxylic acid], the “PDHa/PDHt ratio at 1.5 hours (Compound)” value in experiment [1] (setting [5]) was found to be 0.28. In experiment [3], the “duration of increased myocardial pyruvate uptake after dosing” value is listed as “at least 90 minutes”, the myocardial blood flow result is given as “increased”, the myocardial oxygen consumption result is recorded as “decreased” and the myocardial pyruvate uptake entry is “increases myocardial pyruvate uptake”. The compound further had a blood glucose level in experiment [4] (3 hours after the third dose, 1 millimole/kg. intraperitoneal, placebo 369±9) of 344±9 mg./100 ml. In addition, in experiment [4] (after 2 days of treatment, immediately before third dose, 1 millimole/kg. intraperitoneal daily, baseline 376±6, placebo 383±10), the blood glucose level is 358±9 mg./100 ml. Also, the activation at 2000 µM in experiment [2] amounted to 104%.

The values above are taken from patent US4219566A, “Phenylglyoxylic acids and derivatives thereof” (Pfizer Inc., priority 1977, dated 1980).
